The test system of test [1] is Sk-Br-3. The test is described as follows: Cancer cell proliferation by population doubling time (PDT), Sk-Br-3. In kind it is cell-based, human. The following applies: blocker 1 μM; for population doubling time: 30 min in serum-free medium, cells counted 5 h and 48 h after seeding. Here is the method: (§1) The human breast cancer cell lines MCF-7, BT132, and Sk-Br-3, human neuroblastoma cell line SHSY5Y, murine atrial tumor cell line HL-1 were used. These cell are known to express HERG channels. For chemical blocking of HERG conductance, tumor cells were incubated with dofetilide (1 μM), the anti-arrhythmic agent E4031 (1 μM) or cisapride (1 μM) for 30 min in serum-free medium. Control experiments wherein no dofetilide, no E-4031 and no cisapride was used were also performed.
(§2) Cell proliferation was assessed by characterizing the log phase growth with population doubling time (PDT) calculated by the equation: 1/(3.32*(log NH−log NI)/(t2−t1)), where NH is the number of cells harvested at the end of the growth period (at time t2) and NI is the number of cells at 5 hours (t1) after seed. Cells were counted by a flow cytometer (EPICS XL; Beckman Coulter Canada, Inc.), and the number obtained at 5 h (t1) after seeding was taken as an initial cell number (NI), and the number at 48 h (t2) after seeding was taken as an endpoint number (NH). The longer the PDT is, the slower the growth is.
(§3) In experiments involving interference RNA, in this case siRNA, the cells were transfected with siRNA using lipofectamine-2000 as a carrier to deliver the siRNA to the cells, according to the manufacturer's protocols. The sequence of our siRNA targeting HERG position 3498 bp is […] (SEQ ID NO:1). A negative control targeting the following sequence: […] (SEQ ID NO:2) has been used. The siRNA is designed as cassette using U6 as the promoter and its efficacy was validated by its ability to decrease HERG mRNA by around 78% determined by real-time RT-PCR. SiRNA targeting the following 2 target sequences: […] (SEQ ID 03) (starting at 255 bp) and […] (SEQ ID 04) (starting at 2609 bp) has also been tested. As an siRNA cassette is used, these sequences (SEQ ID 01-04) are also DNA sequences that are injected in the cells to produce in situ the siRNA that will interfere with expression of the HERG gene.

Test [2] concerns SHSY5Y. As to the kind of experiment: Cancer cell proliferation by population doubling time (PDT), SHSY5Y. In kind it is cell-based, human. As to conditions: blocker 1 μM; for population doubling time: 30 min in serum-free medium, cells counted 5 h and 48 h after seeding. Here is the method: as §1, §2, §3
In test [3] the test system is MCF-7. The test is described as follows: Tumor growth in nude mice inoculated subcutaneously with MCF-7. The following applies: for tumor volume, Day 7 / tumor volume, Day 1: MCF-7 tumor in nude mice, 5 μg/tumor single intratumoral injection; for tumor volume, Day 7: 7 days after treatment; for tumor volume, Day 1: day of treatment; for % changes of tumor volume over control: MCF-7 tumor, 5 μg/tumor, day 7.

Test [4] relates to BT132. As to the kind of experiment: Cancer cell proliferation by population doubling time (PDT), BT132. The test is classed as cell-based, human. The following applies: blocker 1 μM; for population doubling time: 30 min in serum-free medium, cells counted 5 h and 48 h after seeding. Here is the method: as §1, §2, §3
The subject of test [5] is SK-BR-3. As to the kind of experiment: Tumor growth in nude mice inoculated subcutaneously with SK-BR-3. As to conditions: for tumor volume, Day 7 / tumor volume, Day 1: Sk-Br-3 tumor in nude mice, 5 μg/tumor single intratumoral injection; for tumor volume, Day 7: 7 days after treatment; for tumor volume, Day 1: day of treatment; for % changes of tumor volume over control: Sk-Br-3 tumor, 5 μg/tumor, day 7.

The test system of test [6] is MCF-7. The test is described as follows: Cancer cell proliferation by population doubling time (PDT), MCF-7. In kind it is cell-based, human. As to conditions: blocker 1 μM; for population doubling time: 30 min in serum-free medium, cells counted 5 h and 48 h after seeding. Here is the method:
as §1, §2, §3

In test [7] the test system is HL-1. As to the kind of experiment: Cancer cell proliferation by population doubling time (PDT), HL-1. In kind it is cell-based, murine. The following applies: blocker 1 μM; for population doubling time: 30 min in serum-free medium, cells counted 5 h and 48 h after seeding. Here is the method:
as §1, §2, §3

For test [8], the system named is MCF-7 cells. As to conditions: cited from earlier work.
Test [9] deals with T1, EAG (Homo sapiens, UniProt O95259).
T1 sequence (O95259 1-989): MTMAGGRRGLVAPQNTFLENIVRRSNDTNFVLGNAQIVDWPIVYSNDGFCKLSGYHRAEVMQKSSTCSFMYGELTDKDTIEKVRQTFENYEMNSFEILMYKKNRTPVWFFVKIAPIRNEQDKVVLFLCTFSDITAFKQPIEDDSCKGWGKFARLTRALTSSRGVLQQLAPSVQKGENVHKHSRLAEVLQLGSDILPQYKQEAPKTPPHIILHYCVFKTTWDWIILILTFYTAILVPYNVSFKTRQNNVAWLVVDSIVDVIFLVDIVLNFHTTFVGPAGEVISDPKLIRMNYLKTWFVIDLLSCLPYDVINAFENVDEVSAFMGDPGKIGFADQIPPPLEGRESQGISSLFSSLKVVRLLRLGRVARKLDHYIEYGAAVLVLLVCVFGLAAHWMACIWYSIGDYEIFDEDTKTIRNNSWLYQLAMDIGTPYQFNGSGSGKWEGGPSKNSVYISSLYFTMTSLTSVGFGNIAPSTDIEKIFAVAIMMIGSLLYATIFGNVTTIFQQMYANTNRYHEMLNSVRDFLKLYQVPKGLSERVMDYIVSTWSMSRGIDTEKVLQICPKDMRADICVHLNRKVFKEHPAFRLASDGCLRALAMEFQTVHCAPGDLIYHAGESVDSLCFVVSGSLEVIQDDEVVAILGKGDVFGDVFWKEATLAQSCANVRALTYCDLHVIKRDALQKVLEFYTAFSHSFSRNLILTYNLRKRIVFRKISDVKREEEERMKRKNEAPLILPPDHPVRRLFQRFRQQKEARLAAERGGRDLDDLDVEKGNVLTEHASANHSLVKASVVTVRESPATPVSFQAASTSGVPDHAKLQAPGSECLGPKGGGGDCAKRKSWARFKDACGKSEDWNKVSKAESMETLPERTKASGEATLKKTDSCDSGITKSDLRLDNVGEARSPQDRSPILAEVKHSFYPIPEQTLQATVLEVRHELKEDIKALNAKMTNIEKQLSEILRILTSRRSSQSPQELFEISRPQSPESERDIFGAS
As to conditions: extracellular perfusion; cited from earlier work.

Marks after values point to notes of the source that are not given here.

`COc1cc(N)c(Cl)cc1C(=O)NC1CCN(CCCOc2ccc(F)cc2)CC1OC` (stereo not shown) [Cisapride, cisapride]: the “% changes of population doubling time over control” value was determined as 114% in test [1]; 57% in test [2]; 62% in test [4]; 58% in [6]; 47% in test [7]. For the same molecule, the population doubling time in [1] is on record as 174.3 ± 17.7* hours; in test [2], 92.0 ± 8.3* hours; in test [4] it was 88.1 ± 9.0* hours; in test [6], 71.7 ± 7.3* hours; in test [7], 100.3 ± 9.8* hours. Besides, the “tumor volume, Day 7” value in [3] is given as 3.0 ± 0.4^+ cm^3; in test [5] it was 3.1 ± 0.3^+ cm^3. For the same molecule, the “tumor volume, Day 1” value in test [3] is given as 3.2 ± 0.5 cm^3; in test [5], 2.4 ± 1.3 cm^3. For the same molecule, the “% changes of tumor volume over control” value in test [3] was −42%; in test [5], −45%.

Regarding `CN(CCOc1ccc(NS(C)(=O)=O)cc1)CCc1ccc(NS(C)(=O)=O)cc1` [Dofetilide, dofetilide], the “% changes of population doubling time over control” value in test [1] turned out to be 128%; in [2] it was 59%; in [4], 56%; in test [6], 55%; in test [7] it was 30%. Further, the population doubling time in [1] was 184.0 ± 16.6* hours; in test [2], 95.2 ± 10.2* hours; in test [4], 84.8 ± 7.5* hours; in test [6], 70.4 ± 6.2* hours; in [7], 85.5 ± 9.2 h.

Consider `Cc1cccc(CCN2CCC(C(=O)c3ccc(NS(C)(=O)=O)cc3)CC2)n1` [E-4031], for which the “% changes of population doubling time over control” value in test [1] is listed as 98%; in test [2], 70%; in test [4] it was 48%; in test [6], 43%; in test [7] it was 37%. Also, the population doubling time in test [1] is reported as 165.3 ± 15.2* hours; in test [2], 101.8 ± 11.5* hours; in test [4], 80.5 ± 8.2* hours; in test [6] it was 64.9 ± 11.5* hours; in test [7], 93.5 ± 10.0* hours. For the same molecule, the “tumor volume, Day 7” value was 3.7 ± 0.8^+ cm^3 in test [3] and 4.1 ± 0.6*^+ cm^3 in [5]. For the same molecule, the figures for the “tumor volume, Day 1” value in test [3] and in [5] were 3.5 ± 0.6 cm^3 and 2.1 ± 1.0 cm^3, respectively. In addition, the “% changes of tumor volume over control” value in test [3] was −30%; in test [5], −28%.

Regarding `CCCCc1oc2ccccc2c1C(=O)c1cc(I)c(OCCN(CC)CC)c(I)c1` [amiodarone], the “effect on growth/proliferation of MCF-7 human breast cancer cells” value in test [8] is listed as “inhibitory effects”.

In the case of `COc1ccc(CCN2CCC(Nc3nc4ccccc4n3Cc3ccc(F)cc3)CC2)cc1` [astemizole], the “inhibition of cell proliferation” value in test [8] (extracellular perfusion, cell line not given) is recorded as approximately 23%. Moreover, the “inhibition of EAG current” value in test [9] is approximately 20%.

`Cc1cc(N)c2ccccc2[n+]1CCCCCCCCCC[n+]1c(C)cc(N)c2ccccc21` [dequalinium]: the “effect on growth/proliferation of MCF-7 human breast cancer cells” value in [8] was “inhibitory effects”.

Values taken from patent US20090209619A1, “Depression of herg k+ channel function in mammallan cells and applications to the control of cancer cells division” (priority 2004, published 2009).
